The source of these data is paper PMC4163838 (The Biochemical journal, 2014).

Structures are written as SMILES.

Experiment [1] addresses T1, AKR1D1 (human steroid 5β-reductase) (Homo sapiens, UniProt P51857).
T1 sequence (P51857 1-326): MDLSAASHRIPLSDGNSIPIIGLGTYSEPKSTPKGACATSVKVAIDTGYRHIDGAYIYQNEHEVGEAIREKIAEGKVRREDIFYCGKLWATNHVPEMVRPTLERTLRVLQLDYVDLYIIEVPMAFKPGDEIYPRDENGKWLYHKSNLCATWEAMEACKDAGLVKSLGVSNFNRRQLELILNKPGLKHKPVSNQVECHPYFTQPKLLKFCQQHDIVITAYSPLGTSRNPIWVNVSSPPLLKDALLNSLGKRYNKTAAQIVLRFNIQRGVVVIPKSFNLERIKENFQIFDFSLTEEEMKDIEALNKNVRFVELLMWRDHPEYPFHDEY
Description: fluorescence titration. Type of experiment: binding.

In experiment [2] the target is T1, AKR1D1 (human steroid 5β-reductase). In words: stopped-flow binding, energy transfer fluorescence. As to conditions: biphasic binding to free enzyme; 37 °C, pH 6.0, 4 % acetonitrile.
For experiment [3] the target is unchanged. Description: stopped-flow competition with excess NADPH, energy transfer fluorescence. Type of experiment: binding. As to conditions: dissociation rate constant from binary complex; 37 °C, pH 6.0, 4 % acetonitrile.

With `CC(C)(C)NC(=O)[C@H]1CC[C@H]2[C@@H]3CC[C@H]4NC(=O)C=C[C@]4(C)[C@H]3CC[C@]12C` [finasteride], the Kd in experiment [1] came to 1140 ± 90 nM.

`CC(C)CCC[C@@H](C)[C@H]1CC[C@H]2[C@@H]3[C@H](O)CC4=CC(=O)CC[C@]4(C)[C@H]3CC[C@]12C` [7α-hydroxycholestenone, 7α-hydroxy-4-cholesten-3-one] showed a Kd in experiment [1] of 1300 ± 100 nM.

For `NC(=O)C1=CN([C@@H]2O[C@H](COP(=O)(O)OP(=O)(O)OC[C@H]3O[C@@H](n4cnc5c(N)ncnc54)[C@H](OP(=O)(O)O)[C@@H]3O)[C@@H](O)[C@H]2O)C=CC1` [NADPH], in experiment [2], the “stopped-flow binding, energy transfer fluorescence” value was “AKR1D1 was mixed with NADPH and the process of NADPH binding to AKR1D1 was directly monitored”.

`NC(=O)c1ccc[n+]([C@@H]2O[C@H](COP(=O)(O)OP(=O)(O)OC[C@H]3O[C@@H](n4cnc5c(N)ncnc54)[C@H](OP(=O)(O)O)[C@@H]3O)[C@@H](O)[C@H]2O)c1` [NADP^+] yielded a koff in experiment [3] of 0.36 ± 0.01 s⁻¹.

What is called Kd is the equilibrium constant for the complex coming apart. A lower Kd goes with higher affinity. A word on the koff: it is the first-order rate constant of dissociation. A low value points to slow dissociation.
